From patent US9512178B2, “Neurogenic brain-derived neurotrophic factor peptides” (Research Foundation for Mental Hygiene, Inc., priority 2012, dated 2016) come the findings set out here.

In experiment [1] the target is T1, TrkB receptor (Homo sapiens, UniProt Q16620).
T1 construct: host or cells: NIH 3T3 fibroblasts, G418 selection
Description: TrkB expression in TrkB stably-expressing NIH-3T3 fibroblasts, time course. The note with it: 1 μM, 60 min. It is filed as cell-based. The protocol: (§1) To study the activation of the TrkB receptor with BDNF and/or with the peptides, NIH 3T3 cells were used, stably transfected with the TrkB receptor (obtained from Montreal Neurological Institute, Montreal, Quábec, Canada). The cell culture medium used for this cell line was: DMEM-high glucose, 10 percent normal calf serum, 1 percent glutamax, 1 percent sodium pyruvate, 1 percent penicillin-streptomycin; supplemented with the selection antibiotic G418 in a final concentration of 100 μg/ml (to guaranty the stable expression of the Trkb transgene). All Medium components were purchase from Gibco Life Technologies, Invitrogen, Grand Island, N.Y., USA.
The NIH 3T3 fibroblasts stably expressing the TrkB receptor were vehicle-treated or treated with BDNF peptides B-5 and B-3 at a concentration of 1 μM or with BDNF at a concentration of 20 ng/ml (0.79 nM) for 5, 15 or 60 min (FIG. 5E, F). […] The effect was time-dependent and was pronounced at 60 min treatment. […] The effect on the increase in expression of TrkB by Peptides B-5 and B-3 could be the way in which the peptides potentiate the BDNF pathway to avoid saturation of the receptors, and/or promote their neurotrophic effect by increasing the expressions of both BDNF (FIGS. 5A and 5B) and TrkB (FIGS. 5C through 5F).

The test system of experiment [2] is primary E18 hippocampal cells. Briefly: Rescue of H2O2-induced neurotoxicity (LDH assay). It is filed as cell-based, mouse. The protocol: Evaluation of cell death and cell viability was performed using the LDH kit (Promega, Madison Wis., USA), following manufactures instructions. Percentages of cell death and cell viability were plotted separately.
In order to evaluate the potential neuroprotective effect of BDNF peptides, the primary E18 hippocampal cells were challenged with 0, 60, 80 and 100 μM H2O2 for 6 hours, and then cells were washed with culture medium and fresh culture medium was added containing the peptides B-5 or B-3 or BDNF or BDNF plus B-3 (see FIGS. 4A and 4B). After 24 hours, the cell viability was assayed by the LDH method.

Experiment [3] concerns the target T1, TrkB receptor. Description: Competition with BDNF for activation (pTrkB) of TrkB in NIH 3T3 cells stably expressing TrkB. It is filed as cell-based. The note with it: 0.05 μM to 10 μM with BDNF 1 ng/ml (0.04 nM), 15 min; dose-dependent. Here is the method: as §1
To evaluate a possible competitive role of the peptides in the activation of TrkB receptor by BDNF, a fibroblast (NIH 3T3) cell line stably expressing the TrkB receptor was used. Cells were vehicle-treated or treated with BDNF 1 ng/ml (0.04 nM) in the presence or absence of 0.05 μM to 10 μM B-5 or B-3 for 15 min (FIG. 7A). […] As observed in primary neuronal cultures (shown in FIGS. 5C and D), the treatment with the peptides alone for 15 min induced a weak but significant activation of TrkB receptor when compared to control (ANOVA, p<0.001).

[4] abbreviates: 80 μM H2O2 6 h, then treatment 24 h.

“Also recorded” adds a separate entry of the source.

T1 sequence (Q16620 32-822): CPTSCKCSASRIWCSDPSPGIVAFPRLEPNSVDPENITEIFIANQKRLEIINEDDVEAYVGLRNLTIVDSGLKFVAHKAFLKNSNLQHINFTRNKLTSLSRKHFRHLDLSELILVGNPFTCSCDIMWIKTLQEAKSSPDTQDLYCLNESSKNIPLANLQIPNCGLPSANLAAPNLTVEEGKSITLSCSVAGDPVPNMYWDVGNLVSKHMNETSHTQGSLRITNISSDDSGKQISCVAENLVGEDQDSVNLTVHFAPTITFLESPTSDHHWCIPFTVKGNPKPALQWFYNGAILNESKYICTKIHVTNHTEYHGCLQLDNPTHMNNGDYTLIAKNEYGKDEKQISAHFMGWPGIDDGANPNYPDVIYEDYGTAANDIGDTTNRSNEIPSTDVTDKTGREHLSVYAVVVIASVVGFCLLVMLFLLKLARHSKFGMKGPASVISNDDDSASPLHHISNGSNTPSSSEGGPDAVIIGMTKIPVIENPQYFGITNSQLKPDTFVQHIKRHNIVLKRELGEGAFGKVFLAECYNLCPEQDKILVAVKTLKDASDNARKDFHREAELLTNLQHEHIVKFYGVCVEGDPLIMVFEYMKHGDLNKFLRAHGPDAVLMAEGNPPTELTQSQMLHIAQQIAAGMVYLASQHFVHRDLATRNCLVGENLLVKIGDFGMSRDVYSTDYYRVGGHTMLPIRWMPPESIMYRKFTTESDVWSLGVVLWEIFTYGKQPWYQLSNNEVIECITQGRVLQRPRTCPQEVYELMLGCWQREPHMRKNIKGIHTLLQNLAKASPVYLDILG

As for Ac-S-KKR-CONH2 [Peptide B-3], the “expression of the receptor TrkB” value on TrkB receptor [1] is “marked increase”. In experiment [2] (after H2O2 exposure, combined with BDNF), the “potentiation of the neuroprotective effect of BDNF” value was “significantly potentiated; also recorded: potentiates the neuroprotective effect of BDNF”. Besides, the “neuroprotective effect of the peptide alone” value in experiment [2] (after H2O2 exposure, without BDNF) is on record as “not sufficient to exert a significant effect”. Moreover, the “competitive inhibition of the activation of TrkB receptor by BDNF” value on TrkB receptor [3] is listed as “significant competitive inhibition”.
For Ac-I-K-R-G-CONH2 [Peptide B-5], in the experiment with TrkB receptor [1], the “expression of the receptor TrkB” value is on record as “marked increase”. The “cell viability (LDH)” value in experiment [2] (60 μM H2O2 6 h, then treatment 24 h) is “significantly increased the cell viability”. In experiment [2] (setting [4]), the “cell death (LDH)” value is reported as “significantly reduced cell death; also recorded: moderate effect in reducing the percentage of cell death” and the “cell viability (LDH)” value is listed as “significantly increased the cell viability”. Besides, in the experiment with TrkB receptor [3], the “competitive inhibition of the activation of TrkB receptor by BDNF” value is recorded as “significant competitive inhibition”.
